Reference: PubChem BioAssay AID192 (DTP/NCI, 2004)
Several values for one entry are separate records, joined by “and”; a condition that tells them apart may be missing. Equal entries are not always repeated. Toxic doses and inconclusive results are not listed.

System: BDF1 mice, B16 melanoma ip, median survival T/C
Assay: NCI In Vivo Anticancer Drug Screen. Data for tumor model B16 Melanoma (intraperitoneal) in B6D2F1 (BDF1) mice
Conditions: endpoint: median survival time, higher = longer survival
Method in brief: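 Each result divides a survival or tumor-size measurement in the compound-treated group by the same measurement in the vehicle group.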

[1] = dose: 200.0 mg/kg/injection, schedule: Q01DX009 (ip), vehicle: Klucel (hydroxypropylcellulose) (HPC)
[2] = dose: 400.0 mg/kg/injection, schedule: Q01DX009 (ip), vehicle: Klucel (hydroxypropylcellulose) (HPC)
[3] = dose: 12.5 mg/kg/injection, schedule: Q01DX009 (ip), vehicle: Klucel (hydroxypropylcellulose) (HPC)
[4] = dose: 25.0 mg/kg/injection, schedule: Q01DX009 (ip), vehicle: Klucel (hydroxypropylcellulose) (HPC)
[5] = dose: 50.0 mg/kg/injection, schedule: Q01DX009 (ip), vehicle: Klucel (hydroxypropylcellulose) (HPC)
[6] = dose: 100.0 mg/kg/injection, schedule: Q01DX009 (ip), vehicle: saline
[7] = dose: 100.0 mg/kg/injection, schedule: Q01DX009 (ip), vehicle: saline with Tween-80
[8] = dose: 200.0 mg/kg/injection, schedule: Q01DX009 (ip), vehicle: saline with Tween-80
[9] = dose: 100.0 mg/kg/injection, schedule: Q01DX009 (ip), vehicle: Klucel (hydroxypropylcellulose) (HPC)
[10] = dose: 6.25 mg/kg/injection, schedule: Q01DX009 (ip), vehicle: saline
[11] = dose: 12.5 mg/kg/injection, schedule: Q01DX009 (ip), vehicle: saline
[12] = dose: 25.0 mg/kg/injection, schedule: Q01DX009 (ip), vehicle: saline
[13] = dose: 50.0 mg/kg/injection, schedule: Q01DX009 (ip), vehicle: saline
[14] = dose: 3.13 mg/kg/injection, schedule: Q01DX009 (ip), vehicle: saline with Tween-80
[15] = dose: 6.25 mg/kg/injection, schedule: Q01DX009 (ip), vehicle: saline with Tween-80
[16] = dose: 12.5 mg/kg/injection, schedule: Q01DX009 (ip), vehicle: saline with Tween-80

`Cc1cccc(C)c1NS(=O)(=O)c1ccccc1` was tested, and the T/C [1] was 87 % of control and the T/C [2] was 92 % of control.
With `COC(=O)C1C(O)C(C)C(O)C(C)/C=C\C=C(C)C(=O)Nc2c(C)c(OC(C)=O)c3c(c2O)C(=O)C(C)=C2OCOC(=C23)C(C)=CC(C)(O)C(O)C(C)C1O` (configuration not stated) the T/C [3] was 112 % of control, the T/C [4] was 100 % of control and the T/C (dose: 25.0 mg/kg/injection, schedule: Q01DX009 (ip), vehicle: carboxymethylcellulose (CMC)) was 107 % of control. For the same compound, the T/C [5] was 102 % of control, the T/C (dose: 50.0 mg/kg/injection, schedule: Q01DX009 (ip), vehicle: carboxymethylcellulose (CMC)) was 103 % of control and the T/C (dose: 100.0 mg/kg/injection, schedule: Q01DX009 (ip), vehicle: carboxymethylcellulose (CMC)) was 102 % of control. For the same compound, the T/C (dose: 200.0 mg/kg/injection, schedule: Q01DX009 (ip), vehicle: carboxymethylcellulose (CMC)) was 96 % of control.
With `O=C(O)O` the T/C [6] was 102 % of control, the T/C (dose: 200.0 mg/kg/injection, schedule: Q01DX009 (ip), vehicle: saline) was 97 % of control and the T/C (dose: 400.0 mg/kg/injection, schedule: Q01DX009 (ip), vehicle: saline) was 94 % of control.
`O=C/C=C/c1ccc([N+](=O)[O-])cc1` was tested, and the T/C (dose: 25.0 mg/kg/injection, schedule: Q01DX009 (ip), vehicle: saline with Tween-80) was 100 % of control.
For `O=C(Nc1cc(C(F)(F)F)ccc1Cl)c1ccc(Cl)cc1Cl`, the T/C [7] was 88 % of control and the T/C [8] was 88 % of control.
With `OCC1OC(n2cnc3c(NO)ncnc32)C(O)C1O` (configuration not stated) the T/C [1] was 109 % of control and the T/C [2] was 111 % of control.
`COc1ccc(OCC(O)CN2CCN(c3ccc(Cl)cc3)CC2)cc1` (configuration not stated) was tested, and the T/C (dose: 6.25 mg/kg/injection, schedule: Q01DX009 (ip), vehicle: Klucel (hydroxypropylcellulose) (HPC)) was 97 % of control, the T/C [3] was 105 % of control and the T/C [4] was 104 % of control. For the same compound, the T/C [5] was 111 % of control, the T/C [9] was 108 % of control and the T/C [1] was 105 % of control.
`CCC/C=C/C(C)C` was tested, and the T/C [9] was 95 % of control, the T/C [1] was 88 % of control and the T/C [2] was 95 % of control.
For `CC(=O)O[C@H]1CC[C@H]2[C@@H]3CC[C@H]4CC=C(C#N)C[C@]4(C)[C@H]3CC[C@]12C`, the T/C [3] was 86 % of control, the T/C [4] was 94 % of control and the T/C [5] was 88 % of control.
In the case of `COc1cc(CN(C)C2CCCCC2)cc(OC)c1OC`, the T/C (dose: 3.12 mg/kg/injection, schedule: Q01DX009 (ip), vehicle: saline) is reported as 105 % of control, the T/C [10] is reported as 102 % of control and the T/C [11] is reported as 95 % of control. For the same compound, the T/C [12] was 91 % of control and the T/C [13] was 101 % of control.
For `CCCCCCC/C=C/C(=O)OC1C(OC2C(OC(CCCCCCC)CC(=O)OC(CCCCCCC)CC(=O)O)OC(C)C(O)C2O)OC(C)C(O)C1O` (configuration not stated), the T/C [3] was 90 % of control, the T/C [4] was 104 % of control and the T/C [5] was 92 % of control.
With `O=C(NCCCCCCNC(=O)N1CC1)N1CC1` the T/C (dose: 0.3 mg/kg/injection, schedule: Q01DX009 (ip), vehicle: saline) was 101 % of control, the T/C (dose: 0.6 mg/kg/injection, schedule: Q01DX009 (ip), vehicle: saline) was 96 % of control and the T/C (dose: 1.2 mg/kg/injection, schedule: Q01DX009 (ip), vehicle: saline) was 103 % of control. For the same compound, the T/C (dose: 2.4 mg/kg/injection, schedule: Q01DX009 (ip), vehicle: saline) was 92 % of control and the T/C (dose: 4.8 mg/kg/injection, schedule: Q01DX009 (ip), vehicle: saline) was 103 % of control.
For `C=C1CCN(c2ccc(OCC)cc2)C1=O`, the T/C (dose: 4.0 mg/kg/injection, schedule: Q01DX009 (ip), vehicle: saline + alcohol) was 93 % of control, the T/C (dose: 8.0 mg/kg/injection, schedule: Q01DX009 (ip), vehicle: saline + alcohol) was 95 % of control and the T/C (dose: 16.0 mg/kg/injection, schedule: Q01DX009 (ip), vehicle: saline + alcohol) was 107 % of control. The T/C (dose: 32.0 mg/kg/injection, schedule: Q01DX009 (ip), vehicle: saline + alcohol) was 115 % of control and the T/C (dose: 64.0 mg/kg/injection, schedule: Q01DX009 (ip), vehicle: saline + alcohol) was 93 % of control.
For `CC(=O)Nc1cccc(OCCCOc2cccc(C(=N)N)c2)c1`, the T/C (dose: 9.37 mg/kg/injection, schedule: Q04DX003 (ip), vehicle: Klucel (hydroxypropylcellulose) (HPC)) was 102 % of control, the T/C (dose: 18.75 mg/kg/injection, schedule: Q04DX003 (ip), vehicle: Klucel (hydroxypropylcellulose) (HPC)) was 100 % of control and the T/C (dose: 37.5 mg/kg/injection, schedule: Q04DX003 (ip), vehicle: Klucel (hydroxypropylcellulose) (HPC)) was 97 % of control. For the same compound, the T/C [5] was 102 % of control and the T/C [9] was 86 % of control.
With `COc1cccc2c1C(=O)c1c(O)c3c(c(O)c1C2=O)C[C@@](O)(C(C)=O)C[C@@H]3OC1CC(NC(C)=O)C(O)C(C)O1` (some centres not stated) the T/C [10] was 169 % of control, the T/C [11] was 198 % of control and the T/C [12] was 308 % of control. The T/C [13] was 227 % of control.
In the case of `COC1=CC(=O)C(C2CC(=O)c3c(O)cc(O)cc3O2)=CC1=O` (configuration not stated), the T/C [14] is reported as 102 % of control, the T/C [15] is reported as 91 % of control and the T/C [16] is reported as 89 % of control.
In the case of `CC(=O)[O][Hg][c]1cc(-c2ccc(N=Nc3c(S(=O)(=O)O)cc4cccc(N)c4c3O)cc2)ccc1N=Nc1c(S(=O)(=O)O)cc2cccc(N)c2c1O`, the T/C (dose: 0.75 mg/kg/injection, schedule: Q01DX009 (ip), vehicle: saline with Tween-80) is reported as 95 % of control, the T/C (dose: 1.5 mg/kg/injection, schedule: Q01DX009 (ip), vehicle: saline with Tween-80) is reported as 90 % of control and the T/C (dose: 1.5 mg/kg/injection, schedule: Q04DX003 (ip), vehicle: saline with Tween-80) is reported as 102 % of control. The T/C (dose: 3.0 mg/kg/injection, schedule: Q04DX003 (ip), vehicle: saline with Tween-80) was 86 % of control.
`CC(=O)OCC1OC([Se][As](C)C)C(OC(C)=O)C(OC(C)=O)C1OC(C)=O` (configuration not stated) was tested, and the T/C [14] was 88 % of control, the T/C [15] was 100 % of control and the T/C [16] was 90 % of control.
For `CCCC1CCC(=C2C(=O)CCC2=O)O1` (configuration not stated), the T/C (dose: 3.13 mg/kg/injection, schedule: Q01DX009 (ip), vehicle: saline) was 102 % of control, the T/C [10] was 100 % of control and the T/C [11] was 91 % of control. The T/C [12] was 89 % of control.
In the case of `CCc1ccccc1NC(=O)Nc1ccc(Cl)cc1`, the T/C (dose: 100.0 mg/kg/injection, schedule: Q01DX009 (ip), vehicle: gum acacia) is reported as 101 % of control, the T/C (dose: 200.0 mg/kg/injection, schedule: Q01DX009 (ip), vehicle: gum acacia) is reported as 97 % of control and the T/C (dose: 400.0 mg/kg/injection, schedule: Q01DX009 (ip), vehicle: gum acacia) is reported as 93 % of control.
For `CCC[CH2][Sn]1([CH2]CCC)[O]C(=O)C[S]1`, the T/C (dose: 1.0 mg/kg/injection, schedule: Q01DX009 (ip), vehicle: saline with Tween-80) was 103 % of control and the T/C (dose: 2.0 mg/kg/injection, schedule: Q01DX009 (ip), vehicle: saline with Tween-80) was 101 % of control.
`CCC(Br)C(=O)Nc1c(C)cccc1Cl` (configuration not stated) was tested, and the T/C [4] was 106 % of control, the T/C [5] was 93 % of control and the T/C [9] was 93 % of control.
For `Cc1cc(Cl)ccc1NC(=O)c1cccc(C(=O)Nc2ccc(Cl)cc2C)c1`, the T/C [9] was 100 % of control, the T/C [1] was 100 % of control and the T/C [2] was 96 % of control.
With `CCCCCCCCC(=O)CCCCCC` the T/C [9] was 100 % of control, the T/C [1] was 96 % of control and the T/C [2] was 104 % of control.
With `CC(C)=Cc1ccccc1` the T/C [7] was 95 % of control, the T/C (dose: 100.0 mg/kg/injection, schedule: Q04DX003 (ip), vehicle: saline with Tween-80) was 95 % of control and the T/C [8] was 86 % of control. For the same compound, the T/C (dose: 200.0 mg/kg/injection, schedule: Q04DX003 (ip), vehicle: saline with Tween-80) was 93 % of control.
For `c1ccc(CN2CCOC2)cc1`, the T/C [11] was 115 % of control, the T/C [12] was 111 % of control and the T/C [13] was 122 % of control. For the same compound, the T/C [6] was 111 % of control.
`CCCCCCCCCC(=O)CCC` was tested, and the T/C [9] was 100 % of control, the T/C [1] was 111 % of control and the T/C [2] was 95 % of control.
In the case of `Cc1cc(C)nc(NC(=O)COc2ccc(Cl)cc2)c1`, the T/C [3] is reported as 97 % of control and the T/C [5] is reported as 97 % of control and 106 % of control.
